In patent US7858738B2, “Synthetic human peptides and pharmaceutical compositions comprising them for the treatment of systemic lupus erythematosus” (Yeda Research and Development Co., Ltd., priority 2001, dated 2010):

Columns and labels:
BALB/c-derived LNC = assay: In vivo inhibition of proliferation of BALB/c LNC to the human 16/6Id mAb; design: species or system mice
Protocol: Because our aim was to test the inhibitory capacity of the peptides based on the CDR of the human 16/6Id autoantibody, it was of importance to find out whether peptides hCDR1 and hCDR3 are capable of inhibiting the priming to the whole molecule of the human 16/6Id mAb. To this end, BALB/c and SJL mice were primed with the human 16/6Id mAb (2 μg/mouse) in CFA intradermally in the hind footpads. […] Ten days following immunization, the mice were sacrificed and their LNCs were tested in vitro for their ability to proliferate to different concentrations (0.1-10 μg/well) of the human anti-DNA 16/6Id mAb.
The results are presented as maximum % inhibition of the proliferation to the immunizing human 16/6Id mAb of lymph node cells of mice immunized and treated with the peptides hCDR1 and hCDR3 as compared with mice that were immunized with the 16/6Id mAb but were not treated with the peptides.
In another experiment, BALB/c mice were immunized with 1 μg human 16/6Id in CFA, intradermally in the hind footpads, and either were injected with hCDR1 s.c., 300 μg/mouse in PBS, or were not further treated. Ten days later the mice were sacrificed and their LNC were tested for their ability to proliferate in vitro to the human 16/6Id. Thus, popliteal LNCs (0.5×10^6) were incubated in the presence of various concentrations (0.1-10 μg/well) of the human anti-DNA 16/6Id mAb. At the end of 4 days incubation, ^3H-thymidine was added to the cultures for the last 18 hours of incubation. Cells were then harvested and radioactivity counted.

(NZB×NZW)F1 mice = assay: Transfer of splenocytes of peptide-treated mice into (NZB×NZW)F1 mice with full-blown disease; assay type: in vivo
Source text: It was of importance to investigate whether the beneficial effects of treatment with hCDR1, that are manifested by the down-regulation of disease manifestations, can be transferred by spleen cells of treated mice. To this end, we have performed an experiment in which 8-month old (NZB×NZW)F1 mice, that suffer already from the full-blown lupus-like disease, were divided into 2 groups. Group 1 was not treated and mice of group 2 were transferred with 20×10^6 spleen cells of 3-month old (NZB×NZW)F1 mice that were injected 3 times (s.c., every other day) with 300 μg/mouse of hCDR1. All splenocytes were injected intraperitoneally. Mice were tested for anti-dsDNA autoantibody production, disease manifestations, and were sacrificed 4 weeks after cell transfer.
The experiment was repeated a few more times using revhCDR1 as control.

## GYYWSWIRQPPGKGEEWIG (Human) [hCDR1, 19-mer peptide based on the CDR1 of the heavy chain of the human 16/6Id mAb]
BALB/c-derived LNC; 50 μg/mouse s.c. in PBS, 16/6Id mAb 0.1 μg/well
  % inhibition of proliferation: 98%
BALB/c-derived LNC; 50 μg/mouse s.c. in PBS, 16/6Id mAb 5 μg/well
  % inhibition of proliferation: 73%
BALB/c-derived LNC; 50 μg/mouse s.c. in PBS, 16/6Id mAb 10 μg/well
  % inhibition of proliferation: 64%
BALB/c-derived LNC; 300 μg/mouse s.c. in PBS, 16/6Id mAb 0.1 μg/well
  % inhibition of proliferation: 47%
BALB/c-derived LNC; 300 μg/mouse s.c. in PBS, 16/6Id mAb 1 μg/well
  % inhibition of proliferation: 66%
BALB/c-derived LNC; 300 μg/mouse s.c. in PBS, 16/6Id mAb 5 μg/well
  % inhibition of proliferation: 76%
BALB/c-derived LNC; 300 μg/mouse s.c. in PBS, 16/6Id mAb 10 μg/well
  % inhibition of proliferation: 62%
BALB/c-derived LNC; maximum % inhibition, 200 μg/mouse s.c. in PBS concomitant with priming
  % Inhibition of the proliferation of BALB/c-derived LNC to the human 16/6Id mAb: 88%
(NZB×NZW)F1 mice; Table 13, recipients of 20 × 10^6 spleen cells from mice treated 3 times s.c. with 300 μg/mouse, non-treated 15.07 ± 4.92
  Proteinuria g/L ± SEM: 0.97 ± 0.67 g/L
(NZB×NZW)F1 mice; Table 13, recipients of 20 × 10^6 spleen cells from treated mice, non-treated 2.25 ± 0.47
  I.C.D ± SEM: 0.75 ± 0.47
(NZB×NZW)F1 mice; Table 14 (repeat experiment), recipients of 20 × 10^6 spleen cells from treated mice, non-treated 2.3 ± 0.26
  I.C.D ± SEM: 1.33 ± 0.35
(NZB×NZW)F1 mice; Table 14 (repeat experiment), recipients of 20 × 10^6 spleen cells from treated mice, non-treated 10.9 ± 3.05
  Proteinuria g/L ± SEM: 2.91 ± 1.6 g/L
(NZB×NZW)F1 mice; transfer of cells of treated mice, 4 weeks after cell transfer
  levels of anti-DNA antibodies: mild reduction
